According to patent publication US4221800A, “Cycloalkenochromone” (Miles Laboratories, Inc., priority 1977, dated 1980):

Legend:
mast cells = test: inhibition of mast cell degranulation (spasmogen release) induced by phospholipase A; assay type: cell-based, rat; conditions: for Relative Potency (in relation to disodium cromoglycate): IC20 relative to disodium cromoglycate, rat mast cells; for IC20: Mast cell, rat peritoneal mast cells, 37° C., ten minutes, read-out: IC20 (inhibition of mast cell degranulation by 20%)
Procedure: The anti-allergic activity was determined by measuring the inhibition of allergic release of spasmogens from mast cells, using the method of Taylor et al., as described in Int. Arch. Allergy, 46, 104(1974).
The inhibition of spasmogen release from mast cells involved obtaining pools of mast cells from normal rats. For each experiment involving pools of mast cells, 10 or more rats were killed by decapitation. The peritoneal fluid from the animals was pooled and the pool dispensed into small polyethylene tubes […] containing 25 μl of a degranulating agent phospholipase A (PL-A), and 25 μl of the drug to be tested. Each treatment was repeated in at least four tubes. All the tubes were incubated at 37° C. for ten minutes. The mast cells were fixed and stained by addition of 50 μl/tube of 2.5% toluidine blue made up in 25% acetic acid. The proportion of mast cells undergoing degranulation was assessed by counting under the microscope. At least 25 mast cells were counted from each tube. The percentage inhibition of degranulation resulting from each treatment was calculated using the formula 100[1-(x-z)/(y-z)], where `x` represents the mean percentage of cells undergoing degranulation in the tubes treated with PL-A and drug, `y` represents the mean percentage of cells undergoing degranulation in the tubes treated with PL-A only, and "z" represents the mean percentage of cells undergoing degranulation in the PL-A-negative tubes.
[See Nature, Vo. 223, 197 (1969)].

[1] = system: allergic release of spasmogens in immediate hypersensitivity reactions; conditions: immediate hypersensitivity reactions in several animals; Nature 223, 197 (1969); cited from earlier work
[2] = system: allergen-induced bronchoconstriction; conditions: asthmatics; reference compound; cited from earlier work

SMILES | Relative Potency (in relation to disodium cromoglycate) (mast cells) | IC20 (mast cells) | inhibition of allergic release of spasmogens (in words) [1] | inhibition of experimental allergen-induced bronchoconstriction (in words) [2]
CCC1CCc2oc3cc(C(=O)O)ccc3c(=O)c2C1 (centres unmarked) [Example 26, 7-Carboxy-2,3-(4'-ethylcyclohexeno)chromone] | > 13.0 | < 600 nM |  | 
O=c1c2c(oc3cc(-c4nn[nH]n4)ccc13)CCCC2 [Example 25, 7(5-(1H)-tetrazolyl)-2,3-cyclohexenochromone] | 7.2 | 900 nM |  | 
CCC1CCc2oc3ccc(-c4nn[nH]n4)cc3c(=O)c2C1 (centres unmarked) [Example 6, Sodium 6-(5-(1H)-tetrazolyl)-2,3-(4'-ethylcyclohexeno)chromone] | 6.5 | 1000 nM |  | 
CCOC(=O)C1CCc2oc3ccc(-c4nn[nH]n4)cc3c(=O)c2C1 (centres unmarked) [Example 8, 6-(5-(1H)-tetrazolyl)-2,3-(4'-ethoxycarbonylcyclohexeno)chromone] | 1.6 | 4200 nM |  | 
CC1CCc2oc3ccc(C(=O)O)cc3c(=O)c2C1 (centres unmarked) [Example 3, 6-Carboxy-2,3-(4'-methylcyclohexeno)chromone] | 1.0 | 6500 nM |  | 
O=c1c2c(oc3ccc(-c4nn[nH]n4)cc13)CCCCCC2 [Example 13, 6-(5-(1H)-tetrazolyl)-2,3-cyclooctenochromone] | 5.0 | 1300 nM |  | 
O=C(O)c1ccc2oc3c(c(=O)c2c1)CC(C(=O)O)CC3 (centres unmarked) [Example 7, 6-Carboxy-2,3-(4'-carboxycyclohexeno)chromone] | 1.0 | 6500 nM |  | 
O=c1c2c(oc3ccc(-c4nn[nH]n4)cc13)CCCC2 [Example 2, 6-(5-(1H)-tetrazolyl)-2,3-cyclohexenochromone] | 3.8 | 1700 nM |  | 
CC1(c2ccccc2)CCc2oc3ccc(-c4nn[nH]n4)cc3c(=O)c2C1 (centres unmarked) [Example 31, 6-(5-(1H)-tetrazolyl)-2,3-(4'-methyl-4'-phenylcyclohexeno)chromone] | 4.3 | 1500 nM |  | 
COC1CCc2oc3ccc(C(=O)O)cc3c(=O)c2C1 (centres unmarked) [Example 21, 6-Carboxy-2,3-(4'-methoxycyclohexeno)chromone] | 3.6 | 1800 nM |  | 
CCC1CCc2oc3ccc(C(=O)O)cc3c(=O)c2C1 (centres unmarked) [Example 5, Sodium-6-carboxy-2,3-(4'-ethylcyclohexeno)chromone] | 11.2 | 580 nM |  | 
CCC1CCC2=C(C1)C(=O)c1cc(C(=O)O)ccc1S2(=O)=O (centres unmarked) [Example 32, 6-Carboxy-2,3-(4'-ethylcyclohexeno)thiochromone-1,1-dioxide] | 10.8 | 600 nM |  | 
CCC1CCc2sc3ccc(-c4nn[nH]n4)cc3c(=O)c2C1 (centres unmarked) [Example 35, 6-(5-(1H)-tetrazolyl)-2,3-(4'-ethylcyclohexeno)thiochromone] | 18,1 | 360 nM |  | 
O=C(O)c1cc(=O)c2c(OCC(O)COc3cccc4oc(C(=O)O)cc(=O)c34)cccc2o1 [disodium cromogylcate] |  |  | specifically inhibit the allergic release of spasmogens in immediate hypersensitivity reactions in several animals | effective inhibitor of experimental allergen-induced bronchoconstriction in asthmatics
CC1CCc2oc3ccc(-c4nn[nH]n4)cc3c(=O)c2C1 (centres unmarked) [Example 4, 6-(5-(1H)-tetrazolyl)-2,3-(4'-methylcyclohexeno)chromone] | 1.4 | 4500 nM |  | 
CSc1ccc2oc3c(c(=O)c2c1)CC(C(=O)O)CC3 (centres unmarked) [Example 18, 6-Methylthio-2,3-(4'-carboxycyclohexeno)chromone] | 5.0 | 1300 nM |  | 
O=C(O)c1ccc2oc3c(c(=O)c2c1)CC(OCc1ccccc1)CC3 (centres unmarked) [Example 15, 6-Carboxy-2,3-(4'-benzyloxycyclohexeno)chromone] | 1.5 | 4300 nM |  | 
CCC1CCc2oc3cc(-c4nn[nH]n4)ccc3c(=O)c2C1 (centres unmarked) [Example 27, 7-(5-(1H)-tetrazolyl)-2,3-(4'-ethylcyclohexeno)chromone] | > 13.0 | < 600 nM |  | 
CCC1CCc2sc3ccc(C(=O)O)cc3c(=O)c2C1 (centres unmarked) [Example 33, 6-Carboxy-2,3-(4'-ethylcyclohexeno)thiochromone] | 1.41 | 4600 nM |  | 
O=C(O)c1ccc2oc3c(c(=O)c2c1)CCCC3 [Example 1, 6-Carboxy-2,3-cyclohexenochromone] | 3.1 | 2100 nM |  | 
O=C(O)c1ccc2c(=O)c3c(oc2c1)CCCC3 [Example 24, 7-Carboxy-2,3-cyclohexenochromone] | 3.1 | 2100 nM |  | 
CS(=O)(=O)c1ccc2oc3c(c(=O)c2c1)CC(C(=O)O)CC3 (centres unmarked) [Example 20, 6-Methylsulfonyl-2,3-(4'-carboxycyclohexeno)chromone] | 3.4 | 1900 nM |  | 
